Assay results: PubChem BioAssay (NCI)
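Results reflect a 48-hour exposure of cells in 96-well plates to compound at five concentrations. GI50 = concentration required for 50% inhibition of growth. TGI: total growth inhibition.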

Tests used:
Experiment in all cases: NCI-60 cell line screen, 48 h
NCI-H522 lung = tested on: NCI-H522 lung
HCT-116 colon = tested on: HCT-116 colon
HCC-2998 colon = tested on: HCC-2998 colon
OVCAR-5 ovarian = tested on: OVCAR-5 ovarian
HOP-62 NSCLC = tested on: HOP-62 NSCLC
U251 CNS = tested on: U251 CNS
OVCAR-8 ovarian = tested on: OVCAR-8 ovarian
K-562 leukemia = tested on: K-562 leukemia
MCF7 breast = tested on: MCF7 breast
NCI/ADR-RES ovarian = tested on: NCI/ADR-RES ovarian

SMILES | TGI (NCI-H522 lung) | TGI (HCT-116 colon) | TGI (HCC-2998 colon) | TGI (OVCAR-5 ovarian) | TGI (HOP-62 NSCLC) | TGI (U251 CNS) | TGI (OVCAR-8 ovarian) | TGI (K-562 leukemia) | GI50 (HCT-116 colon) | GI50 (HCC-2998 colon) | GI50 (HOP-62 NSCLC) | GI50 (U251 CNS) | GI50 (OVCAR-8 ovarian) | GI50 (NCI-H522 lung) | GI50 (MCF7 breast) | GI50 (NCI/ADR-RES ovarian) | GI50 (OVCAR-5 ovarian) | GI50 (K-562 leukemia)
COc1ccc(CN(O)C2C(CO)OC(n3cc(I)c(=O)[nH]c3=O)C2O)cc1 (centres undefined) | > 100 µM | > 100 µM | > 100 µM | > 100 µM | > 100 µM | > 100 µM | > 100 µM | > 100 µM |  |  |  |  |  |  |  |  |  | 
CCS[C@H]1NC(=O)C1[C@H](C)O[Si](C)(C)C(C)(C)C (some centres undefined) |  | > 100 µM |  | > 100 µM | > 100 µM | > 100 µM | > 100 µM | > 100 µM |  |  |  |  |  |  |  |  |  | 
c1ccc([CH2][Sn]([CH2]c2ccccc2)([S]c2cccc3cccnc23)[S]c2cccc3cccnc23)cc1 |  | 0.351 µM | 0.334 µM |  | 6.94 µM | 1.14 µM | 1.4 µM |  | 0.165 µM | 0.139 µM | 0.764 µM | 0.341 µM | 0.361 µM |  |  |  |  | 
N#Cc1c([N+](=O)[O-])cc(C(F)(F)F)cc1[N+](=O)[O-] | 1.24 µM | 20 µM |  | 32.5 µM | 32.8 µM | 33.7 µM | 4.36 µM | 5.08 µM |  |  |  |  |  |  |  |  |  | 
CC(=O)OC1COC(N2C(=O)C(=O)c3c(C)cc(Cl)nc32)C(OC(C)=O)C1OC(C)=O (centres undefined) |  | > 100 µM |  | > 100 µM | > 100 µM | > 100 µM | > 100 µM | > 100 µM |  |  |  |  |  |  |  |  |  | 
C[N+](C)(C)CC(=O)N/N=C(/C=C/c1ccccc1)CC1OC(=O)c2ccccc21 (centres undefined) | > 100 µM | > 100 µM | > 100 µM | > 10 µM | > 100 µM | > 100 µM | > 100 µM | > 100 µM |  |  |  |  |  |  |  |  |  | 
O=C(c1ccccc1)c1nnn(Cc2cccc(Cl)c2)c1C(=O)c1ccccc1 | > 100 µM | > 100 µM | > 100 µM | > 100 µM | > 100 µM | > 100 µM | > 100 µM | > 100 µM |  |  |  |  |  |  |  |  |  | 
[N-]=[N+]=Nc1ccc(S(=O)(=O)Oc2cc(OS(=O)(=O)c3ccc(N=[N+]=[N-])cc3)cc(OS(=O)(=O)c3ccc(N=[N+]=[N-])cc3)c2)cc1 | > 100 µM | > 100 µM | > 100 µM | > 100 µM | > 100 µM | > 100 µM | > 10 µM | > 100 µM |  |  |  |  |  |  |  |  |  | 
CCN(CC)CCN(C)CC(C)(C)C(=O)/C=C/c1ccccc1 | 21.4 µM |  | 27.7 µM | 26.9 µM | 37 µM | 22.1 µM | 43.2 µM | > 100 µM |  |  |  |  |  |  |  |  |  | 
C=CCCc1cc(OC)ccc1CN(C)C(C)(C)CO |  | > 100 µM |  | > 100 µM | > 100 µM | > 100 µM | > 100 µM | > 100 µM |  |  |  |  |  |  |  |  |  | 
CN1CCC(O)C(CNC23CC4CC(CC(C4)C2)C3)C1 (centres undefined) | > 100 µM |  |  | > 100 µM | > 100 µM | > 100 µM | > 100 µM | > 100 µM |  |  |  |  |  |  |  |  |  | 
Cc1c(C(=O)/C=C/c2ccco2)[n+](=O)c2ccccc2n1[O-] | > 100 µM | > 100 µM | > 100 µM | > 100 µM |  |  | > 100 µM | > 100 µM |  |  |  |  |  |  |  |  |  | 
CC/C(=C(\c1ccccc1)c1ccc(OCCN(C)C)cc1)c1ccccc1 |  |  |  |  |  |  |  |  | 2.25 µM | 0.878 µM |  |  | 5.35 µM | 1.42 µM | 1.12 µM | 2.86 µM | 6.76 µM | 1.84 µM
